Laboratory results reported in patent publication US20250026722A1, “SUBSTITUTED QUINOLINES AS IMPROVED NF-KB-INDUCING KINASE (NIK) INHIBITORS” (YUKIN THERAPEUTICS, priority 2021, published 2025).

Experiments:
A375 cells [1] = experiment: Proliferation assay in A375 cells (confocal imaging after seven days with compound); format: cell-based; conditions: Homo sapiens, A-375, 168 h, seven days in the presence of compounds
Procedure: (§1) A375 (American Type Culture Collection; CRL-1619) cells were seeded into 96 well plates (1,200 cells/well; Perkin Elmer; 6005225) and incubated overnight at 37° C., 5% CO2. Compounds prepared in media (Dulbecco's modified Eagle medium+10% foetal bovine serum+1% penicillin/streptomycin) were added to the cells and incubated for four days at 37° C., 5% CO2. Media was then aspirated from the cells and freshly prepared compounds were added to the cells, which were then incubated for a further three days at 37° C., 5% CO2. After a total of seven days in the presence of compounds, media was removed, and the cells were labelled with Hoechst (1 in 1,000; Thermo Fisher; 62249), TOTO™-3 (1 in 10,000; Thermo Fisher; T3604) and SPiDER βGAL (1.0 μM; Sigma-Aldrich; 94433) prepared in Hanks' Balanced Salt Solution supplemented with 1.0 mM HEPES buffer for 20 minutes at 37° C. Cells were imaged by confocal microscopy using an ImageXpress (Molecular Devices) at ×10 magnification. Images were analysed using MetaXpress software (Molecular Devices).

A375 cells [2] = experiment: Senescence assay in A375 cells (SPiDER βGAL labelling, confocal imaging after seven days with compound); format: cell-based; conditions: Homo sapiens, A-375, 168 h, seven days in the presence of compounds
Procedure: as §1

NIK [3] = biological target: T1, NIK (Homo sapiens, UniProt Q99558); experiment: NIK degradation Western-blot experiments in A375 cells; format: cell-based; conditions: 10 μM for 72 hrs, 5 μM MG132 during last 4 hours
T1 construct: endogenous in cells; host or cells: A375 cells
Procedure: A375 cells were plated in 6-well dishes at 2,000 cells/cm^2. The day after, cells were treated for 72 hrs with compounds of the examples at 10 μM. Cells were treated during the last 4 hours of the treatment period with 5 μM MG132 to inhibit proteasomal degradation. For protein isolation, cells were washed twice with PBS and then lysed using RIPA Buffer (1×) containing protease and phosphatase inhibitors. Following sonication, the lysate was centrifuged at 20,000 g for 10 min at 4° C. and the supernatants were collected and assayed for protein concentration using the BCA kit (Pierce).
Total protein (20 μg) was separated by electrophoresis on 10% SDS-polyacrylamide gels and transferred to PVDF membranes (Millipore). Blocking was performed in Tris-buffer saline containing 3% BSA. Membranes were incubated with the appropriate primary antibodies overnight at 4° C. (NIK, CST #4994, 1/2000) and β-actin (Santa-Cruz, sc-47778, 1/5000). After washing three times, membranes were incubated with horseradish peroxidase-conjugated secondary antibodies for 1 h. Bound antibodies were detected using an enhanced chemiluminescence plus kit (GE Healthcare). NIK degradation was tested and confirmed for the compounds of Examples 3, 4, 5, 6, 10 and 11 (see the corresponding table below). For illustration, the Western blot analysis of NIK degradation in cells treated with the compound of Example 3 (at 10 μM for 72 h) is shown in FIG. 1.

NIK [4] = biological target: T1, NIK; conditions: pan kinase inhibitor, literature; cited from earlier work

T1 sequence (Q99558 whole entry): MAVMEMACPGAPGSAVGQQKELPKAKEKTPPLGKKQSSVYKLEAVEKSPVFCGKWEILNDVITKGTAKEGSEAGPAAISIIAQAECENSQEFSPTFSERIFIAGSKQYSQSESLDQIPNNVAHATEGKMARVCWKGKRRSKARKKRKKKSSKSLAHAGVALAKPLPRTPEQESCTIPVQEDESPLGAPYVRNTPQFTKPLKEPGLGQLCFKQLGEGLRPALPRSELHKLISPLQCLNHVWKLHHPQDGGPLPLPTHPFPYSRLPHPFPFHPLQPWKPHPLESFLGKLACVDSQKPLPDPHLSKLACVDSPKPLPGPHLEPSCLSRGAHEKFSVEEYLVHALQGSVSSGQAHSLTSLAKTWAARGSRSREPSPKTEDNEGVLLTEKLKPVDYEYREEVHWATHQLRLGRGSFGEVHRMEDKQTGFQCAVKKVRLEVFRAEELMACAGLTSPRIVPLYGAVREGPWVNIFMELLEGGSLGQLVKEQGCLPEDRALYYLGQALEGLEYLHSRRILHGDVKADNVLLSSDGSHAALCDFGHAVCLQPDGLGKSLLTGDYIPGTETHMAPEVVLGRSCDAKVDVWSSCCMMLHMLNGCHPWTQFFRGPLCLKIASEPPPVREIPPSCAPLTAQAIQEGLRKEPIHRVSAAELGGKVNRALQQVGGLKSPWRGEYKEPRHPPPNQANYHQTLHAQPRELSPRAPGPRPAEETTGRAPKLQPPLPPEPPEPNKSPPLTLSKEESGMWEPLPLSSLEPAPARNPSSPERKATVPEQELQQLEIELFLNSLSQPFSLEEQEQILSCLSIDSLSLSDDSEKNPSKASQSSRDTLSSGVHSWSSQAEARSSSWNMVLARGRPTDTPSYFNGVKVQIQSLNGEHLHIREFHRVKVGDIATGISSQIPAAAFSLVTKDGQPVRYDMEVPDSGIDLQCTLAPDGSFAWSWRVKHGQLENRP

Row | SMILES | IC50 (A375 cells [1]) | EC50 (A375 cells [2]) | NIK degradation activity (NIK [3]) | inhibition of the kinase activity (NIK) (NIK [4])
1 | COCCOc1ccc(Nc2ccnc3cc(OC)ccc23)c(OC)c1 [Example 3, 7-methoxy-N-(2-methoxy-4-(2-methoxyethoxy)phenyl)quinolin-4-amine] | – | – | confirmed | –
2 | COCCOc1ccc(Nc2ccnc3cc(-c4cnn(C)c4)ccc23)c(OC)c1 [Example 4, N-(2-methoxy-4-(2-methoxyethoxy)phenyl)-7-(1-methyl-1H-pyrazol-4-yl)quinolin-4-amine] | – | – | confirmed | –
3 | COCCOc1ccc(Nc2ccnc3cc(C4=CCN(C)CC4)ccc23)c(OC)c1 [Example 5, N-(2-methoxy-4-(2-methoxyethoxy)phenyl)-7-(1-methyl-1,2,3,6-tetrahydropyridin-4-yl)quinolin-4-amine] | – | – | confirmed | –
4 | COCCOc1ccc(Nc2ccnc3cc(N4CCN(C)CC4)ccc23)c(OC)c1 [Example 6, N-(2-methoxy-4-(2-methoxyethoxy)phenyl)-7-(4-methylpiperazin-1-yl)quinolin-4-amine] | – | – | confirmed | –
5 | COCCOc1ccc(Nc2ccnc3cc(C4CCN(C)CC4)ccc23)c(OC)c1 [Example 11, N-(2-methoxy-4-(2-methoxyethoxy)phenyl)-7-(1-methylpiperidin-4-yl)quinolin-4-amine] | – | – | confirmed | –
6 | CN[C@@H]1C[C@H]2O[C@@](C)([C@@H]1OC)n1c3ccccc3c3c4c(c5c6ccccc6n2c5c31)C(=O)NC4 [staurosporine] | – | – | – | micromolar level

Now from value to compound, other results behind:

Row | IC50 (A375 cells [1]) | EC50 (A375 cells [2]) | NIK degradation activity (NIK [3]) | SMILES | inhibition of the kinase activity (NIK) (NIK [4])
7 | 1.74 µM | 2.31 µM | – | COCCOc1ccc(Nc2ccnc3cc(C(F)F)ccc23)cc1 | –
8 | 1.9 µM | 2.46 µM | – | COCCOc1ccc(Nc2ccnc3cc(C)ccc23)cc1 | –
9 | 0.205 µM | 0.2 µM | – | COCCOc1ccc(Nc2ccnc3cc(C(F)F)ccc23)c(OC)c1 [Example 9, 7-(difluoromethyl)-N-(2-methoxy-4-(2-methoxyethoxy)phenyl)quinolin-4-amine] | –
10 | 0.195 µM | 0.67 µM | confirmed | COCCOc1ccc(Nc2ccnc3cc(C)ccc23)c(OC)c1 [Example 10, N-(2-methoxy-4-(2-methoxyethoxy)phenyl)-7-methylquinolin-4-amine] | –
11 | 1.69 µM | 2.49 µM | – | COCCOc1ccc(Nc2ccnc3cc(Cl)ccc23)cc1 [Reference compound (*), 7-chloro-N-(4-(2-methoxyethoxy)phenyl)quinolin-4-amine] | –
12 | > 10 µM | > 10 µM | – | COc1ccc(Nc2ccnc3cc(Cl)ccc23)cc1O [Reference compound (**), 7-chloro-N-(3-(hydroxy)-4-(methoxy)phenyl)quinolin-4-amine] | –
